For 15 compounds, MIC and IC50 results are on record in US9403850B2, “Beta-lactamase inhibitors” (priority 2013, dated 2016).

In general, MIC refers to the lowest concentration that inhibits growth of the organism. Broadly, the IC50 is the concentration that inhibits the measured activity by half.

Experiment [1] relates to P. aeruginosa Ps296 expressing VIM-2. The experiment is described as follows: Broth microdilution MIC assay, partner meropenem. The format is cell-based. Conditions: Pseudomonas aeruginosa, read-out: MIC of Exemplary Compounds in presence of fixed β-lactams, Fixed Mero, P. aerug. Ps296 VIM-2. In general terms: Broth dilution looks for growth in wells or tubes with falling amounts of substance.

The target in a further experiment is T1, VIM-2 (Escherichia coli, UniProt Q5U7L7).
T1 construct: made in house; host or cells: E. coli BL21(DE3)
Nature of the experiment: β-Lactamase enzyme inhibition assay, VIM-2 (nitrocefin substrate). It is filed as biochemical. As to conditions: nitrocefin substrate 100 μM, 15 min preincubation at 37° C.; read-out: IC50, Class B VIM-2. How it is done:
For Vim-2 metallo β-lactamase, the procedure was identical with the following exceptions, first the protein was not pH adjusted to pH 5 with 50 mM sodium acetate, second, the chromatography step was changed to a 5 ml Q sepharose anion exchange column pre-equilibrated with 50 mM Hepes pH 7.5, and elution of the protein was achieved by a linear gradient of NaCl (0-600 mM). Finally, the VIM-2 purification required a second run (3rd step) on the Q sepharose anion exchange column to achieve acceptable purity (>90%).
An equal volume of diluted enzyme stock was added, and the plates were incubated at 37° C. for 15 min. Nitrocefin was used as substrate for p99 AmpC, VIM-2 and OXA-1 and dispensed into each well at a final concentration of 100 μM. Absorbance at 486 nm was immediately monitored for 10 min using a Biotek Powerwave XS2 microplate spectrophotometer using the GEN5 softweare package (Biotek Instruments, Winooski Vt.). In an analogous fashion, imipenem was used as substrate for Kpc-2 and Cefotaxime was used for SHV-5, while changes in absorbance upon hydrolysis of the β-lactam ring were monitored at 300 nm and 260 nm respectively in UV-transparent 96-well microtiter assay plates. Maximum rates of hydrolysis were compared to those in control wells (without inhibitors), and percentages of enzyme inhibition were calculated for each concentration of inhibitor. The concentration of inhibitor needed to reduce the initial rate of hydrolysis of substrate by 50% (IC50) was calculated as the residual activity of β-lactamase at 486 nm using GraFit version 7 kinetics software package (Erithacus Software, Surrey, UK).
Using the methodology described above, examples of the current invention were evaluated for their ability to inhibit β-lactamase enzymes from all four Ambler classifications (A through D). […] NT=Not tested.

Experiment [2] has as its system S. aureus MSSA-7 producing penicillinase PC-1. The experiment is described as follows: Broth microdilution MIC assay, partner piperacillin. As to conditions: Staphylococcus aureus, fixed piperacillin 4 μg/mL, read-out: MIC of Exemplary Compounds in presence of fixed β-lactams, Fixed Pip, S. aureus MSSA-7 PC-1. It is filed as cell-based.
Experiment [3] relates to E. coli ESBL4 expressing CTX-M-15. Nature of the experiment: Broth microdilution MIC assay, partner ceftazidime.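 Note: ceftazidime held fixed at 4 µg/mL.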 It is filed as cell-based. Conditions: Escherichia coli, read-out: MIC of Exemplary Compounds in presence of fixed β-lactams, Fixed CAZ, E. coli ESBL4 CTX-M-15.
Experiment [4] has as its system E. cloacae 144200 expressing Class C P99 AmpC. The experiment is described as follows: Broth microdilution MIC assay, partner ceftazidime.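 Note: ceftazidime held fixed at 4 µg/mL.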 The format is cell-based. Conditions: Enterobacter cloacae, read-out: MIC of Exemplary Compounds in presence of fixed β-lactams, Fixed CAZ, E. cl. 144200 p99 AmpC.
The test system of experiment [5] is K. pneumoniae 156319 expressing KPC-3. Nature of the experiment: Broth microdilution MIC assay, partner meropenem. It is filed as cell-based. As to conditions: Klebsiella pneumoniae, read-out: MIC of Exemplary Compounds in presence of fixed β-lactams, Fixed Mero, K.P. 156319 KPC-3.
Experiment [6] has as its system K. pneumoniae A-1797 expressing KPC-2 and VIM-4. The experiment is described as follows: Broth microdilution MIC assay, partner meropenem. It is filed as cell-based. Conditions: Klebsiella pneumoniae, read-out: MIC of Exemplary Compounds in presence of fixed β-lactams, Fixed Mero, K.P. A-1797 KPC-2 VIM-4.

Regarding `O=C(N[C@H]1Cc2cccc(C(=O)O)c2OB1O)c1ccc2ncccc2c1` [Example 28, (R)-2-hydroxy-3-(quinoline-6-carboxamido)-3,4-dihydro-2H-benzo[e][1,2]oxaborinine-8-carboxylic acid], the MIC in experiment [1] was above 32 µg/mL; in experiment [2], below 4 µg/mL; in experiment [3], below 4 µg/mL; in experiment [4], below 4 µg/mL; in experiment [5] it was below 4 µg/mL; in experiment [6], 8 to 32 µg/mL. In addition, the IC50 on VIM-2 lay within 1000 to 10000 nM.
As for `O=C(N[C@H]1Cc2cccc(C(=O)O)c2OB1O)c1ccc2nccnc2c1` [Example 29, (R)-2-hydroxy-3-(quinoxaline-6-carboxamido)-3,4-dihydro-2H-benzo[e][1,2]oxaborinine-8-carboxylic acid], the MIC in experiment [1] is above 32 µg/mL; in experiment [2], below 4 µg/mL; in experiment [3], below 4 µg/mL; in experiment [4], below 4 µg/mL; in experiment [5] it was below 4 µg/mL; in experiment [6] it was above 32 µg/mL. For the same compound, on VIM-2, the IC50 fell in the range of 1000 to 10000 nM.
For `O=C(N[C@H]1Cc2cccc(C(=O)O)c2OB1O)c1ccc2cc[nH]c2c1` [Example 30, (R)-2-hydroxy-3-(1H-indole-6-carboxamido)-3,4-dihydro-2H-benzo[e][1,2]oxaborinine-8-carboxylic acid], the minimum inhibitory concentration (MIC) is below 4 µg/mL in experiment [1]; below 4 µg/mL in experiment [2]; below 4 µg/mL in experiment [3]; below 4 µg/mL in experiment [4]; below 4 µg/mL in experiment [5]; 8 to 32 µg/mL in experiment [6]. The concentration for half-maximal inhibition (IC50) at VIM-2 fell in the range of 100 to 1000 nM.
Consider `O=C(O)c1cccc2c1OB(O)[C@@H](NC(=O)c1cccc3cc[nH]c13)C2` [Example 31, (R)-2-hydroxy-3-(1H-indole-7-carboxamido)-3,4-dihydro-2H-benzo[e][1,2]oxaborinine-8-carboxylic acid], for which the MIC in experiment [1] was 8 to 32 µg/mL; in experiment [2], below 4 µg/mL; in experiment [3], below 4 µg/mL; in experiment [4], below 4 µg/mL; in experiment [5], below 4 µg/mL; in experiment [6] it was above 32 µg/mL. Moreover, at VIM-2, the IC50 lay in the range of 1000 to 10000 nM.
Regarding `O=C(O)c1cccc2c1OB(O)[C@@H](NC(=O)c1cccc3[nH]ccc13)C2` [Example 32, (R)-2-Hydroxy-3-[(1H-indole-4-carbonyl)-amino]-3,4-dihydro-2H-benzo[e][1,2]oxaborinine-8-carboxylic acid], the MIC in experiment [1] is below 4 µg/mL; in experiment [2] it was below 4 µg/mL; in experiment [3], below 4 µg/mL; in experiment [4] it was below 4 µg/mL; in experiment [5], below 4 µg/mL; in experiment [6], above 32 µg/mL. For the same compound, at VIM-2, the IC50 was in the range of 100 to 1000 nM.
As for `O=C1Cc2cc(C(=O)N[C@H]3Cc4cccc(C(=O)O)c4OB3O)ccc2N1` [Example 33, (R)-2-Hydroxy-3-[(2-oxo-2,3-dihydro-1H-indole-5-carbonyl)-amino]-3,4-dihydro-2H-benzo[e][1,2]oxaborinine-8-carboxylic acid], the MIC is below 4 µg/mL in experiment [1]; below 4 µg/mL in experiment [2]; below 4 µg/mL in experiment [3]; below 4 µg/mL in experiment [4]; below 4 µg/mL in experiment [5]; 8 to 32 µg/mL in experiment [6]. Further, the half-maximal inhibitory concentration (IC50) at VIM-2 fell in the range of 100 to 1000 nM.
As to `O=C(N[C@H]1Cc2cccc(C(=O)O)c2OB1O)c1ccc2nc[nH]c2c1` [Example 34, (R)-3-[(3H-Benzoimidazole-5-carbonyl)-amino]-2-hydroxy-3,4-dihydro-2H-benzo[e][1,2]oxaborinine-8-carboxylic acid], the MIC in experiment [1] is below 4 µg/mL; in experiment [2], below 4 µg/mL; in experiment [3], below 4 µg/mL; in experiment [4], below 4 µg/mL; in experiment [5], below 4 µg/mL; in experiment [6] it was 8 to 32 µg/mL. In addition, the IC50 on VIM-2 was 100 to 1000 nM.
As for `O=C(N[C@H]1Cc2cccc(C(=O)O)c2OB1O)c1cnc2[nH]ccc2c1` [Example 35, (R)-2-Hydroxy-3-[(1H-pyrrolo[2,3-b]pyridine-5-carbonyl)-amino]-3,4-dihydro-2H-benzo[e][1,2]oxaborinine-8-carboxylic acid], the MIC was below 4 µg/mL in experiment [1]; below 4 µg/mL in experiment [2]; below 4 µg/mL in experiment [3]; below 4 µg/mL in experiment [4]; below 4 µg/mL in experiment [5]; above 32 µg/mL in experiment [6]. For the same compound, the IC50 at VIM-2 fell in the range of 100 to 1000 nM.
In the case of `N=C(N)N1Cc2ccc(CC(=O)N[C@H]3Cc4cccc(C(=O)O)c4OB3O)cc2C1` [Example 37, (3R)-3-[[2-(2-carbamimidoylisoindolin-5-yl)acetyl]amino]-2-hydroxy-3,4-dihydro-1,2-benzoxaborinine-8-carboxylic acid], the MIC is below 4 µg/mL in experiment [1]; below 4 µg/mL in experiment [2]; below 4 µg/mL in experiment [3]; below 4 µg/mL in experiment [4]; below 4 µg/mL in experiment [5]; above 32 µg/mL in experiment [6]. Further, the 50% inhibitory concentration (IC50) at VIM-2 was 100 to 1000 nM.
For `O=C(Cc1ccc(O)c(O)c1)N[C@H]1Cc2cccc(C(=O)O)c2OB1O` [Example 38, (R)-3-(2-(3,4-dihydroxyphenyl)acetamido)-2-hydroxy-3,4-dihydro-2H-benzo[e][1,2]oxaborinine-8-carboxylic acid], the MIC in experiment [1] was 8 to 32 µg/mL; in experiment [2], below 4 µg/mL; in experiment [3], below 4 µg/mL; in experiment [4], below 4 µg/mL; in experiment [5], below 4 µg/mL; in experiment [6] it was 8 to 32 µg/mL. The concentration for half-maximal inhibition (IC50) on VIM-2 is 100 to 1000 nM.
On to `O=C(N[C@H]1Cc2cccc(C(=O)O)c2OB1O)c1ccc(O)c(O)c1` [Example 39, (R)-3-(3,4-dihydroxybenzamido)-2-hydroxy-3,4-dihydro-2H-benzo[e][1,2]oxaborinine-8-carboxylic acid], for which the minimal inhibitory concentration (MIC) in experiment [1] is 8 to 32 µg/mL; in experiment [2], 8 to 32 µg/mL; in experiment [3], below 4 µg/mL; in experiment [4] it was below 4 µg/mL; in experiment [5], below 4 µg/mL; in experiment [6] it was 8 to 32 µg/mL. Further, on VIM-2, the IC50 lay within 100 to 1000 nM.
For `NCCOc1ccc(C(=O)N[C@H]2Cc3cccc(C(=O)O)c3OB2O)cc1O` [Example 40, (R)-3-(4-(2-aminoethoxy)-3-hydroxybenzamido)-2-hydroxy-3,4-dihydro-2H-benzo[e][1,2]oxaborinine-8-carboxylic acid], the MIC in experiment [1], in experiment [2], in experiment [3], in experiment [4], in experiment [5] and in experiment [6] was below 4 µg/mL throughout. Also, on VIM-2, the IC50 was below 100 nM.
Consider `NCCn1ccc2ccc(C(=O)N[C@H]3Cc4cccc(C(=O)O)c4OB3O)cc21` [Example 41, (R)-3-{[1-(2-Amino-ethyl)-1H-indole-6-carbonyl]-amino}-2-hydroxy-3,4-dihydro-2H-benzo[e][1,2]oxaborinine-8-carboxylic acid], for which the MIC in experiment [1] was 8 to 32 µg/mL; in experiment [2] it was below 4 µg/mL; in experiment [3], below 4 µg/mL; in experiment [4], below 4 µg/mL; in experiment [5], above 32 µg/mL; in experiment [6], below 4 µg/mL. Further, the IC50 on VIM-2 was below 100 nM.
Take `NCCn1ccc2c(C(=O)N[C@H]3Cc4cccc(C(=O)O)c4OB3O)cccc21` [Example 42, (R)-3-{[1-(2-Amino-ethyl)-1H-indole-4-carbonyl]-amino}-2-hydroxy-3,4-dihydro-2H-benzo[e][1,2]oxaborinine-8-carboxylic acid]: the MIC in experiment [1] was below 4 µg/mL; in experiment [2] it was below 4 µg/mL; in experiment [3], below 4 µg/mL; in experiment [4], below 4 µg/mL; in experiment [5], above 32 µg/mL; in experiment [6] it was 8 to 32 µg/mL. For the same compound, at VIM-2, the IC50 was in the range of 100 to 1000 nM.
Turning to `Cn1ccc2ccc(C(=O)N[C@H]3Cc4cccc(C(=O)O)c4OB3O)cc21` [Example 43, (R)-2-Hydroxy-3-[(1-methyl-1H-indole-6-carbonyl)-amino]-3,4-dihydro-2H-benzo[e][1,2]oxaborinine-8-carboxylic acid], the minimum inhibitory concentration (MIC) is above 32 µg/mL in experiment [1]; below 4 µg/mL in experiment [2]; below 4 µg/mL in experiment [3]; below 4 µg/mL in experiment [4]; above 32 µg/mL in experiment [5]; above 32 µg/mL in experiment [6]. The half-maximal inhibitory concentration (IC50) at VIM-2 is 100 to 1000 nM.
